What was measured:
[1] = Lap shear test of cured PMA resin on primed silica/glass; conditions: second value of each pair (silica)
Experimental: (§1) 1 wt % primer solution was spread on mica, glass, tooth enamel, or a silicon wafer and incubated for 1 min, followed by thorough washing with methanol (for MDP, P1-P3) or DMSO (for P4) and drying by flowing nitrogen. The surfaces were exposed to a basic aqueous solution (pH 9, using sodium hydroxide), incubated for 1 min, and drying by flowing nitrogen (see FIG. 52). The methacrylic comonomer blend (Bis-GMA, TEGDMA, DMAEMA and CQ) was packed in a gelatin capsule (size #4, 5-mm diameter, Torpac Inc.) and placed up on top of the primer-treated substrates. The comonomer blend was cured (or crosslinked) for 1 min using a portable dental curing lamp (Foshan Liang Ya Dental Co., LY-A180, 420-480 nm, 1200-2000 mW·cm^−2) (see FIG. 53). Uniaxial compression was applied to the capsule at a rate of 0.05 inch min^−1 using a materials testing system (MTS Bionix 200) until the capsules are separated from the substrate. The lap shear fracture measurements were repeated at least 10 times for each condition.

[2] = QCM-D adsorption of primers; format: physicochemical
Experimental: A ‘static cell’ (often called ‘Open Module’) QCM-D (Q-Sense, Biolin Scientific) was employed to quantitatively evaluate the adsorption of each primer onto SiO2 surface using a quartz sensor (QSX 303, Biolin Scientific). Changes in resonance frequency (ΔF) and dissipation (ΔD) of the SiO2 were recorded and used to measure the adsorbed mass and layer viscoelasticity, respectively, of the primer deposited on the sensor. In detail, pure solvent (100 μl) was dropped onto the sensor and equilibrated for ˜20-30 min. Then, 2 wt % primer solution (100 μl) was dropped onto the sensor (this is labeled “Solution Drop-in” in FIG. 51) and equilibrated until the frequency and dissipation signals stabilized. To remove unbound primers, the sensor was rinsed with solvents (this is labeled “Solvent Rinsing” in FIG. 51) and equilibrated until frequency and dissipation signals stabilized.
Mass loss of P3 and P4 during the rinsing was negligible compared to P2 which lost 60% of initial mass, indicating outstanding adsorption efficiency of catechol-containing primers on SiO2 surfaces even compared to mussel foot protein adsorption (˜30% loss of mfp-3s^3). The priming thickness of P4 estimated by QCM-D is ˜3.1 nm which agrees with the average height of AFM images (˜3.5 nm), assuming that QCM-D measures the average thickness of a uniform layer. The smaller average thickness of P4 (˜3.1 nm) compared to the molecular contour length (˜4.8 nm) may be attributed to the flexible alkyl spacer in P4. The possibility of a softer, more flexible layer with P4 is supported by a higher change in dissipation (ΔD) compared to other primers.

[3] = Lap shear test of cured PMA resin on primed tooth enamel; set-up: species or system human
Experimental: as §1

[4] = Lap shear test of cured PMA resin on primed mica; conditions: first value of each pair (mica)
Experimental: as §1

[5] = AFM height profiles of adsorbed primers; format: physicochemical
Experimental: Each primer solution (1 wt %) was prepared in methanol (for P1-P3) or DMSO (for P4). The primer solution was drop cast onto a freshly cleaved mica or glass surface, and kept at room temperature for 1 min. Subsequently, the surfaces were thoroughly rinsed with the respective solvents and dried with argon. All images, surface profiles and surfaces roughnesses were collected using an Asylum MFP-3D standard system (Asylum Research, Santa Barbara, CA) using silicon cantilevers (FORTGG-50, Applied NanoStructures, Santa Clara, CA) (FIGS. 48C and 49).

[6] = SFA adhesion of cured PMA resin between primer-treated mica surfaces
Experimental: Atomically-smooth muscovite mica sheets were freshly cleaved (thickness of 2-5 μm) and attached on another large freshly cleaved mica backing sheet under a laminar flow hood and placed in a desiccator for clean storage. To ensure use of a fresh surface for each experiment, mica was peeled away from the backing sheet and glued on cylindrical disks using an epoxy glue (EPON 1004 F® from Exxon Chemicals). In each experiment, the mica surfaces were treated with one of the primer solutions, as described for the lap shear experiments, and then mounted in the SFA in a cross cylindrical geometry. In contrast to typical SFA experiments, which use an interferometric method to calculate the disk-disk separation distances and thus the interaction forces, in the SFA used here for adhesion testing, the disk separations were directly measured using semiconductor strain-gauged double cantilever springs (k=1000-10000 N/m)(see FIG. 67). After separating the surfaces, 100 […]1 of comonomer blend was injected between the two surfaces. Then, ˜600 mN of load was applied, followed by visible light curing for 1 min using the portable dental curing lamp (see FIG. 54G). Adhesion strength of cured polymer toward the mica was measured by detaching (unloading) two surfaces. All loading and unloading were performed using a coarse micrometer at the velocity of […]. The SFA measurements were repeated at least 5 times for each condition.

[7] = Surface forces apparatus (SFA) cohesion/adhesion between thin films on mica; format: physicochemical
Experimental: The interaction between two surfaces can be measured with nano-Newton level force resolution and Angstrom level resolution in the separation distance between the surfaces. The details of the SFA techniques have been describe in a work by Israelachvili et al. In a typical SFA experiment (FIG. 2C), the distance and the force between the surfaces are measured simultaneously. To begin with, the instrument is calibrated at large separation distances. When the two surfaces are not interacting, i.e., they are separated by large distances, the change in the separation between them is equal to the distance through which the motor moves the lower surface towards or away from the upper surface (or the upper surface driven by the piezo-tube moves towards the lower surface). However, once the surfaces are close enough to start interacting with each other, the measured separation distance deviates from the expected separation calibrated when there is no force between the surfaces. This deviation is due to the deflection of the double cantilever spring and is directly proportional to the force acting normally between the two opposing surfaces. Thus the normal force can be measured using Hooke's law, F=kΔx, where k is the spring constant of the double-cantilever spring and Δx=Dactual−Dapplied is the deflection of the spring, determined by taking the difference between the applied change in position of one of the surfaces Dapplied and the actual change in distance measured between the surfaces Dactual. The actual distance, Dactual, between the surfaces can be measured by multiple beam interferometry (MBI) and will be discussed below.
The distance between the surfaces, shape of the interface and the refractive index of the media between the surfaces can be accurately determined by Multiple Beam Interferometry (MBI) technique. In this technique, white light is directed through two back-silvered mica surfaces (or uniform and same thickness). As a white light passes between the mica surfaces, it undergoes interference due to the optical trap set up by the back silver on each of these surfaces giving rise to discrete wavelengths of light (FIG. 2C). These wavelengths of light are resolved in a spectrometer creating interference fringes known as ‘fringes of equal chromatic order’ (FECO). Since mica is birefringent, the FECO appears as doublets and termed as β and γ. Alternate fringes are termed as odd and even fringes with odd fringes having nodes at the center and even fringes with anti-nodes in the center. The FECO is then recorded on a camera and analyzed to determine the distance between the surfaces using the following equations: […]
The adhesion/cohesion energy of the synthetic zwitterionic molecules was investigated in SFA (SurForce LLC, Santa Barbara, CA). Two molecularly smooth freshly cleaved back silvered mica surfaces glued on cylindrical silica discs of radius of curvature, R˜2 cm, were mounted in the SFA and 50 μL of a colloidal dispersion of the synthetic molecules in DI water were injected between the surfaces at different concentrations (C=0.5-5 mM) and the forces between the thin films of the molecules were measured by Multiple Beam Interferometry (MBI). The adhesion forces between Z-Cat-C10 molecules on various surfaces, e.g., silica and copper, were also measured by AFM (MFP-3D, Asylum research, Goleta, CA) in DI water and ambient conditions, respectively, at room temperature. AFM probes with a silicon dioxide particle (10, 5, and 1 μm, respectively) on a silicon nitride (SN) cantilever-0.6 N m^−1 were purchased from Novascan Technologies, Inc (Ames, IA). Cantilever spring constants were measured for each force run. Images of Z-Cat-C10 coating on silicon wafer and copper plates were visualized in an AFM. […]

[8] = Cyclic voltammetry of catechol oxidation; format: physicochemical; conditions: 5 mM in DI water
Experimental: (§2) Cyclic voltammetry was performed on a Versastat 3 potentiostat from Ametek Co. These analyses were carried out using a three-electrode cell: a Pt wire as the counter electrode, an Ag/AgCl reference electrode, and a Carbon paste electrode (CPE) served as the working electrode. CPE is the best choice for adhesive materials because of its ability to be completely polished before each experiment. Catechol auto-oxidation was avoided by performing all electrochemical experiments with degassed deionized water in a glove bag under argon. Scan rate 1 mV s-1 was used for all experiments. CV of 5 mM synthesized polymers and 5 mM methyl catechol, a simple catechol-containing compound, were compared. Oxidation of Catechol carrying molecules occurred at more positive potentials than methyl catechol, indicating the unique structure of the dispersions provide shielding effects that stabilized catechol groups (FIG. 3).
Cyclic voltammetry was performed on a Versastat 3 potentiostat from Ametek Co. (Berwyn, PA). These analyses were carried out using a three-electrode cell: a Pt wire as the counter electrode, an Ag/AgCl reference electrode, and a Carbon paste electrode (CPE) served as the working electrode. CPE is the best choice for adhesive materials because of its ability to be completely polished before each experiment.
as §2, with “s^−1” for “s-1”, “molecules” for “polymers”, “groups. Z-Cat-Ben with an oxidation peak at 840 mV is more resistant to oxidation than the other species” for “groups”, “42).” for “3).”

[9] = OFET characterization (saturation hole mobility)
Source text: The OFETs were fabricated onto nano-grooved SiO2 substrates prepared by rubbing n^++Si (500 μm)/SiO2 (300 nm) substrate (International Wafer Services Co.) with a diamond lapping disc with particle sizes of 100 nm (Allied High Tech Products Inc.) as described in detail in the previous reports. The Ni (5 nm)/Au (50 nm) source and drain electrodes were patterned on the SiO2 dielectrics through a conventional photolithography process. For OFETs with Ni source and drain electrodes, an additional Ni (10 nm) layer was deposited on top of the pre-deposited Au electrodes. All metal electrodes were deposited by electron beam evaporation at 7×10^−7 Torr. Then, the substrates were sonicated in acetone and isopropanol for cleaning, and were kept in an oven at >100° C. for overnight. After ultraviolet/ozone treatment of pre-cleaned nano-grooved SiO2 substrates for 10 min, the substrates were passivated with the Z-Cat-Ben or Z-Cat-Ben-F SAM by dropping SAM water solution (5 mM) onto the substrates for ˜1 min. The substrates were subsequently rinsed with deionized water for ˜1 min, and were kept in a low vacuum for 10 min to remove residual water. The PCDTPT (1-Material Inc.) was then cast from a chlorobenzene solution (0.25 mg mL^−1) through the sandwich casting in a nitrogen-filled glove box. The devices were then cured at 200° C. for 1 min prior to measurements, and were tested using a probe station (Signatone Co.) in a nitrogen-filled glove box. Data were collected by a Keithley 4200 system.
The field-effect mobilities in the saturation regime were extracted using the following equation, IDS=(W/2L)Cμ(VGS−VT)^2 (7) where, W is the channel width, L is the channel length, C is the gate dielectric capacitance per unit area, μ is the carrier mobility in the saturation regime, IDS is the drain-source current, and VGS is the gate-source voltage. Channel width/length is 1000/200 μm for the devices used in this study. Transistor Characteristics of OFETs with Z-Cat-Ben and Z-Cat-Ben-F: Contact Angle Measurements: […]

[10] = Contact angle measurements on SAM-modified substrates; format: physicochemical; conditions: SAM-modified nano-grooved SiO2
Experimental: The nano-grooved SiO2 substrates passivated with Z-Cat-Ben or Z-Cat-Ben-F SAMs were prepared with the same procedure described above. For the reference substrate, the pre-cleaned and ultraviolet/ozone-treated (for 10 min) nano-grooved SiO2 substrate was passivated with n-decyltrichlorosilane (Gelest Inc.) in toluene solution (1% by volume) at 80° C. for 20 min in ambient air. Then, the substrate was subsequently sonicated in toluene and rinsed with additional toluene several times. Anhydrous chlorobenzene (50 μL) was used as a droplet dropping on the substrates. All contact angle images were taken at the direction perpendicular to nano-grooves in the substrates using Dataphysics OCA 15EC goniometer.

| thickness from QCM-D [2] | surface concentration of adsorbed layer ([2]; Sauerbrey, after rinsing) | mass loss during rinsing ([2]; of initial mass) | adsorption seen by AFM ([5]; 1 wt.% solution, mica and glass) | AFM height ([5]; mica) | hard-wall thickness ([7]; SAMs from 5 mM, mica) | SAM thickness on each mica surface ([7]; half of hard-wall) | contact angle θ of chlorobenzene droplet [10] | Structure (SMILES) | lap shear strength σshear,max [1] | lap shear strength σshear,max [3] | lap shear strength σshear,max [4] | increase in adhesion vs plain mica (no primer) [6] | adhesion pressure Pad ([6]; n=5) | cohesion energy Wc between SAMs ([7]; 5 mM in DI water, mica) | stability in water to oxidation (shelf life) [8] | saturation hole mobility μ ([9]; Au source and drain electrodes) | saturation hole mobility ([9]; Ni source and drain electrodes) |
| --- | --- | --- | --- | --- | --- | --- | --- | --- | --- | --- | --- | --- | --- | --- | --- | --- | --- |
| ~3.1 nm | 345 ng/cm^2 | negligible | densely primed | ~3.5 nm |  |  |  | C=CC(=O)OCCCCCCCCOC(=O)CCc1ccc(O)c(O)c1 [P4, 8-((3-(3,4-dihydroxyphenyl)propanoyl)oxy)octyl acrylate] | 4.5±0.5 MPa | 3.0±0.3 MPa | 0.9±0.1 MPa | ~4 fold | 81.7±18.5 kPa |  |  |  |  |
|  |  |  |  |  |  |  |  | C=CC(=O)OCCC[Si](OC)(OC)OC [Silane, 3-trimethoxysilylpropyl acrylate, reference compound] | 3.8±1.1 MPa | no increase in the lap shear strength | 0.9±0.4 MPa |  |  |  |  |  |  |
|  |  |  |  |  | 2.6±0.4 nm | ~1.3 nm | < 10 ° | C[N+](C)(CCCc1cc(C(F)(F)F)cc(C(F)(F)F)c1)CCOP(=O)([O-])OCCCc1ccc(O)c(O)c1 [Z-Cat-Ben-F] |  |  |  |  |  | 3.3±1.0 mJ/m^2 | stable (shelf life) in water to oxidation | 26±5 cm^2 V^−1 s^−1 | 46±4 cm^2 V^−1 s^−1 |
